# Results published in patent US5412125A, “Dipeptidic amides derived from glycyl-serine as surfactants or hydrating agents and cosmetic, pharmaceutical or alimentary compositions containing the same” (L'Oreal, priority 1991, dated 1995).
# Where a SMILES comes first, the peptide text is derived from it. The star is where a group is joined. Lauroyl = CCCCCCCCCCCC(=O)*
# Experiment: Foaming power study (brush-developed foam in graduated cylinder)
# Type: physicochemical
# Details: 5% aqueous solution (weight/volume), 5 ml with 6 mg natural feminine sebum; after 180 sec stirring
# Protocol: The test consists in developing the foam using a brush made of natural hog bristles (length=[…]) displaced in a plexiglass graduated cylindrical container (inside diameter=35 mm). This container is driven in a uniform circular motion which is the reverse of that described by the brush. This permits a good distribution of the foam in the graduated container despite the small amounts developed. (brush speed=100 rpm, container speed=10 rpm). The procedure is carried out using 5 ml of each solution studied to which has been added 6 mg of natural feminine sebum. The foam heights are recorded after one, two and three minutes of stirring.
smiles,measurement,value
"CCCCCCCCCCCC(=O)NCC(=O)NCC(=O)[O-].[Na+] [compound A, sodium salt of N-dodecanoyl-glycyl-glycine] (Lauroyl-Gly-Gly-OH)",Foam Height (cm) at the end of a time of 180 sec,20 cm
